Data published in patent publication US20080269335A1, “Crth2 Receptor Antagonists” (priority 2004, published 2008).
pIC50, pKi: −log10 of the molar value. Where two headings read alike, the source gives them in different places.

Columns and labels:
CRTh2 receptor [1] = biological target: T1, CRTh2 receptor (Homo sapiens, UniProt Q9Y5Y4); test: CRTh2 cAMP functional assay; assay type: cell-based; design: expressed in transfected cells; host or cells: CHO cells; settings: CHO cells stably transfected with CRTh2; 10 nM Prostaglandin D2 and 5 μM forskolin; cAMP Alphascreen
T1 sequence (Q9Y5Y4 1-395): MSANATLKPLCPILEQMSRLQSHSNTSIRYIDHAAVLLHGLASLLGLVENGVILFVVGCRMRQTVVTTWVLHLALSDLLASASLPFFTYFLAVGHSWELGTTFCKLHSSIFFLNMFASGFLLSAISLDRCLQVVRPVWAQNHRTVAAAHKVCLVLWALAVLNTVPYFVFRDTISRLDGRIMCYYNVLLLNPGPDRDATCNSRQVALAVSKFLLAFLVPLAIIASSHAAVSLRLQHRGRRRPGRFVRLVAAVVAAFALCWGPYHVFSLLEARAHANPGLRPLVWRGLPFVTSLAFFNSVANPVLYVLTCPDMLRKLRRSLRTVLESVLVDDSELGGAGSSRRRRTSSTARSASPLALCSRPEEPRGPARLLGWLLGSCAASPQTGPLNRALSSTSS
Experimental: CRTh2 cAMP Functional Assay Protocol
For each concentration value on the dose-response curve, test compounds are prepared in assay stimulation buffer/DMSO and 5 μL/well is added to an assay plate (384 well, white optiplate).
CHO cells stably transfected with the CRTh2 receptor are prepared (dissociated from a cell culture flask and washed in PBS) to a concentration of 4×10^6/mL in assay stimulation buffer and added to the assay plate ([…]).
The assay plate is incubated at room temperature on a shaker for 15 minutes.
A mix of agonist (10 nM Prostaglandin D2) and 5 μM forskolin is prepared in assay stimulation buffer and added to the assay plate (5 μL/well).
In addition, a cAMP standard is serially diluted in assay stimulation buffer and added to separate empty wells on the assay plate (20 μL/well).
The assay plate is incubated at room temperature on a shaker for 60 minutes.
A cell lysis mix (lysis buffer containing Alphascreen™ donor beads and biotinylated cAMP) is prepared under darkened conditions 60 minutes prior to addition. Alphascreen™ acceptor beads are added to the lysis mix after 60 minutes. The resulting lysis mix is added to all wells of the assay plate (40 μL/well).
The assay plate is sealed with Topseal-S™ and incubated in the dark at room temperature on a shaker for 45 minutes. The plate is then counted using a Packard Fusion™ instrument.
The resulting counts per minute are converted to nM cAMP by using the prepared cAMP standard curve. IC50 values are then determined using Prism™ software.

CRTh2 receptor [2] = biological target: T1, CRTh2 receptor; test: Scintillation Proximity Assay (SPA) binding assay, 3H prostaglandin D2; design: expressed in transfected cells; host or cells: K562 or CHO cells (membranes)
Experimental: Scintillation Proximity Assay (SPA) Protocol
Membranes are prepared from K562 or Chinese hamster ovary (CHO) cells stably transfected with human CRTh2 receptors.
The assay is performed in a 96 well U-bottomed polypropylene plate in a final volume of 100 μL. For each concentration of test compound on the dose-response curve, the components of the assay are added sequentially as follows: test compound in DMSO/assay buffer (25 μL), ^3H prostaglandin D2 (25 μL) and CRTh2 membrane fragments (50 μL). The assay is incubated at ambient temperature with shaking for 60 minutes, and then harvested on to filter plates. The plate is dried for 2 hours, prior to addition of Micro-Scint 20™ (50 μL) and sealing with TopSeal-S™. Plates are then counted using a Packard Top Count instrument, each well being counted for 20 minutes. Ki values are determined using Sigma Plot™ software, using the Cheng-Prussoff equation.

[3] = membranes from K562 or CHO cells stably transfected with human CRTh2, 3H prostaglandin D2, read-out: Ki values in the SPA binding assay

SMILES | pIC50 (CRTh2 receptor [1]) | pKi (CRTh2 receptor [2]) | pKi (CRTh2 receptor [2]; [3])
O=C(O)COc1ccc(Cl)cc1C1CCCCCC1 [Example 2, (4-Chloro-2-cycloheptylphenoxy)acetic acid] | 6.83 | 7.22 | –
O=C(O)COc1ccc(Br)cc1C1CCCCC1 [Example 3, (4-Bromo-2-cyclohexylphenoxy)acetic acid] | 6.72 | – | –
O=C(O)COc1ccc(Br)cc1C1CCCCCC1 [Example 5, (4-Bromo-2-cycloheptylphenoxy)acetic acid] | 6.86 | – | 7.15
O=C(O)COc1ccc(C(F)(F)F)cc1C1CCCCC1 [Example 13, (2-Cyclohexyl-4-trifluoromethyl-phenoxy)-acetic acid] | 6.86 | – | 7.68
